Test results: PMC4798879 (Nature chemical biology, 2016)
One block for each compound: values may come before it.

Columns and labels:
H2122 cells = test: Compound stability in cell lines, H2122; assay type: in vitro ADME, human
[1] = system: panel of 12 NSCLC cell lines; test: Concentration-response toxicity across panel of NSCLC cell lines; assay type: cell-based, human
[2] = Pharmacokinetic studies in CD-1 mice; assay type: in vivo, mouse; settings: 6 and 20 mg/kg
[3] = Body weight loss in xenograft experiments; assay type: in vivo, mouse; settings: once daily dosing
sebocytes = test: In vivo toxicity study, sebocytes in skin of CD-1 mice; parameters: species or system mouse; settings: 20 mg/kg once a day for two weeks
H2122 = test: Compound concentration response, viability; assay type: cell-based, human; settings: read-out: IC50 (concentration that resulted in 50% less viability); H2122 cells
H2122 derived tumors = test: Xenograft experiment, H2122 derived tumors in Nod-Scid mice; assay type: in vivo, mouse; settings: 20 mg/kg once daily

Compound: CCCCc1ccc(N=CNO)c(C)c1 [HET0016]
effect on binding of SW208108 to SCD (SCD (p37 and p30); H2122, 0.1 µM SW208108): inhibited the binding of SW208108 to SCD in a dose dependent fashion
effect on ability of dMe-SW208108 to bind SCD (SCD (p37 and p30); H2122, 0.1 µM dMe-SW208108): no effect
effect on SW208108 metabolism (H2122 cells): inhibited both the loss of SW208108 and the generation of dMe-SW208108

Compound: COc1ccc(CCNC(=O)C(=O)Nc2ccc(Cl)cc2)cc1 [SW027951]
toxicity in eight of the remaining ten cell lines ([1]; 6 μM): insensitive
toxicity in HCC44 and HCC95 ([1]; HCC44 and HCC95 cell lines): intermediate toxicity

pharmacokinetic properties [2]: favorable pharmacokinetic properties
IC50 (H2122): 95 nM
Compound: O=C(NCCC1CC1)c1ccc(N2CCN(C(=O)c3cc(F)ccc3C(F)(F)F)CC2)nn1 [Xenon-45]
Weight loss [3]: up to 7%
sebocytes in hair follicles of skin (sebocytes): devoid of sebocytes
growth of H2122 tumors (H2122 derived tumors): no efficacy
